Assay results taken from ChEMBL document CHEMBL4665834 (J Med Chem, 2020).
Calls of active or inactive are those of the source. The calls are words filed in the database; no cut-off is given here.

Columns and labels:
[1] = Efflux ratio of apparent permeability across basolateral to apical side over apical to basolateral side in human Caco-2 cells measured after 2 hrs by HPLC analysis; assay type: ADME, cell-based
[2] = Clearance in Wistar rat hepatocytes assessed as extrapolated blood clearance at 1 uM measured after 2 to 90 mins by LC-MS/MS analysis; assay type: ADME, cell-based, Hepatocyte; settings: time 2-90 min
Homo sapiens [3] = species on record: Homo sapiens; test: Selectivity ratio of IC50 for displacement of [3H]prostaglandin E2 from full-length recombinant human EP4 receptor expressed in Chem-1 cell membranes to IC50 for displacement of [3H]PGF2alpha from full-length recombinant human FP receptor expressed in HEK293 cell membranes
Cytochrome P450 2D6 = Cytochrome P450 2D6 (Homo sapiens, UniProt P10635); test: Inhibition of CYP2D6 in human liver microsomes using dextromethorphan as substrate incubated for 15 mins in presence of NADPH generating system by LC-MS/MS analysis; assay type: ADME
Chain of Cytochrome P450 2D6 (P10635 whole entry): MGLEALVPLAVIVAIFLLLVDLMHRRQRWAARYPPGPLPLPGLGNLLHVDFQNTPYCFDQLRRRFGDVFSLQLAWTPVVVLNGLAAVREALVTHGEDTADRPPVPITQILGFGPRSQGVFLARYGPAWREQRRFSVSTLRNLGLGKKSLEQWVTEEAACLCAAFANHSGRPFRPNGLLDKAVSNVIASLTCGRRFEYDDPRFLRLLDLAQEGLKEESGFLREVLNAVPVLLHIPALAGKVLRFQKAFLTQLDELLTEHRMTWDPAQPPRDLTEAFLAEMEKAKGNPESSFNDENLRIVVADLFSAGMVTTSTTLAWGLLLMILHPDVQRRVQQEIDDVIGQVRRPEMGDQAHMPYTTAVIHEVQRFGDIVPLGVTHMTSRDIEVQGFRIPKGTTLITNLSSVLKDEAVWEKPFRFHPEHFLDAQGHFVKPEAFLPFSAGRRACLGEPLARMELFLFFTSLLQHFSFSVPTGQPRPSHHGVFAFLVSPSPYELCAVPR

Cytochrome P450 2C9 = Cytochrome P450 2C9 (Homo sapiens, UniProt P11712); test: Inhibition of CYP2C9 in human liver microsomes using diclofenac as substrate incubated for 15 mins in presence of NADPH generating system by LC-MS/MS analysis; assay type: ADME
Chain of Cytochrome P450 2C9 (P11712 whole entry): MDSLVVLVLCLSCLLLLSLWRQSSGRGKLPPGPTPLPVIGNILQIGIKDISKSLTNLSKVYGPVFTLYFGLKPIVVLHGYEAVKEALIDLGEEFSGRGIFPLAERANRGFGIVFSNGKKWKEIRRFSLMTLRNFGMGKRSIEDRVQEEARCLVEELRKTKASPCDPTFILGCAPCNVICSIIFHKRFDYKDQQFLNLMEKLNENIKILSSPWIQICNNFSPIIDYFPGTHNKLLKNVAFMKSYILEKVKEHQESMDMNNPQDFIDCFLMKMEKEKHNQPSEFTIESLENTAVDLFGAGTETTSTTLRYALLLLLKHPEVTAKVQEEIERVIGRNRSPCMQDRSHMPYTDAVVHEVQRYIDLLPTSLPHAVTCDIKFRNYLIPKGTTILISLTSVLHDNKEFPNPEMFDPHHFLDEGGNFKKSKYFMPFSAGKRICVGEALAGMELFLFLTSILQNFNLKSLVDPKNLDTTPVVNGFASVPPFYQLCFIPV

Cytochrome P450 2C8 = Cytochrome P450 2C8 (Homo sapiens, UniProt P10632); test: Inhibition of CYP2C8 in human liver microsomes using amodiaquine as substrate incubated for 15 mins in presence of NADPH generating system by LC-MS/MS analysis; assay type: ADME
Cytochrome P450 1A2 = Cytochrome P450 1A2 (Homo sapiens, UniProt P05177); test: Inhibition of CYP1A2 in human liver microsomes using phenacetin as substrate incubated for 15 mins in presence of NADPH generating system by LC-MS/MS analysis; assay type: ADME
Chain of Cytochrome P450 1A2 (P05177 whole entry): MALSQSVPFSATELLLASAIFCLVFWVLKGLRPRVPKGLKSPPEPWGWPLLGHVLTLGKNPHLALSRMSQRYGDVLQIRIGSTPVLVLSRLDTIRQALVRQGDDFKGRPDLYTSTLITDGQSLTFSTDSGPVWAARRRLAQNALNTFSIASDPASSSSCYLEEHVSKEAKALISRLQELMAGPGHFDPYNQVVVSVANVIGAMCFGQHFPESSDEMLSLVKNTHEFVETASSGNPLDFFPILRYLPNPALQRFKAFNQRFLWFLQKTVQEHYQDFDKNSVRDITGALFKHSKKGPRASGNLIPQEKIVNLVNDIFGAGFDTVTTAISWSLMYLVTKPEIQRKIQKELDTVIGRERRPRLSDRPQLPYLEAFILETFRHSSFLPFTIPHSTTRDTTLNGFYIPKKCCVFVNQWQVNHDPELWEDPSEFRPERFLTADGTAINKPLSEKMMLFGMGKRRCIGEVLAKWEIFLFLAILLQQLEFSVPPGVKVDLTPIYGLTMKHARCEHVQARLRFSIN

[4] = Half life in Wistar rat at 0.3 to 1 mg/kg, iv administered as bolus dose by LC-MS/MS analysis; assay type: ADME, organism-based; settings: in vivo, dose 0.3-1 mg/kg
[5] = Oral bioavailability in Wistar rat at 1 to 3 mg/kg administered via gavage using EtOH/PEG400/H2O 10/40/50 formulation by LC-MS/MS analysis; assay type: ADME, organism-based; settings: in vivo, dose 1-3 mg/kg
[6] = Clearance in Wistar rat at 0.3 to 1 mg/kg, iv administered as bolus dose by LC-MS/MS analysis; assay type: ADME, organism-based; settings: in vivo, dose 0.3-1 mg/kg
Cytochrome P450 3A4 = Cytochrome P450 3A4 (Homo sapiens, UniProt P08684); test: Inhibition of CYP3A4 in human liver microsomes using midazolam as substrate incubated for 10 mins in presence of NADPH generating system by LC-MS/MS analysis
Chain of Cytochrome P450 3A4 (P08684 whole entry): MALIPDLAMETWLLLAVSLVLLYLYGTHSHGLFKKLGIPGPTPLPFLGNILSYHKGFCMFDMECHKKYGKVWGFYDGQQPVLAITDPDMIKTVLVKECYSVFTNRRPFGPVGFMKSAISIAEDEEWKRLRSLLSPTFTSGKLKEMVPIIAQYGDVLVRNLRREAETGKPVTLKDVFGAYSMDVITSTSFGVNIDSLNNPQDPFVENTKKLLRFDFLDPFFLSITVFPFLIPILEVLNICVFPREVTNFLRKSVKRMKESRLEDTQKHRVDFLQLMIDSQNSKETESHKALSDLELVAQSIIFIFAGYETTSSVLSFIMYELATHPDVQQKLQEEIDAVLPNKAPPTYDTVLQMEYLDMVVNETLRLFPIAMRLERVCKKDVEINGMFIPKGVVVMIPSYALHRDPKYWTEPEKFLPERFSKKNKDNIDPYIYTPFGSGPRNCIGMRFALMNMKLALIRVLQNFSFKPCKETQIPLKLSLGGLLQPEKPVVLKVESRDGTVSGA

[7] = Oral bioavailability in Wistar rat at 1 to 3 mg/kg administered via gavage using EtOH/PEG400/H2O/DMSO 8/40/50/2 formulation by LC-MS/MS analysis; assay type: ADME, organism-based; settings: in vivo, dose 1-3 mg/kg
Prostacyclin receptor = Prostacyclin receptor (Homo sapiens, UniProt P43119); test: Displacement of [3H]PGD2 from full-length recombinant human IP receptor expressed in HEK293 cell membranes measured after 60 mins by scintillation counting method
Chain of Prostacyclin receptor (P43119 whole entry): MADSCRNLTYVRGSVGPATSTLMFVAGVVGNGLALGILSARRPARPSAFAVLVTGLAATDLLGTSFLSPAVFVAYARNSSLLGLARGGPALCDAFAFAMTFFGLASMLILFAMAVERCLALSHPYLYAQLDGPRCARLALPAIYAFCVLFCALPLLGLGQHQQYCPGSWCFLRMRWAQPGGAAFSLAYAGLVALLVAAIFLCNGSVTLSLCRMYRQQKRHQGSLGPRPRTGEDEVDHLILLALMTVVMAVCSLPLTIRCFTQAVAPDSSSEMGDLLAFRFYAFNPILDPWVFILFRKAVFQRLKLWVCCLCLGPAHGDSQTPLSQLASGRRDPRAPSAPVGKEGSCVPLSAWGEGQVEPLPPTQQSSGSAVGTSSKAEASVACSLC

[8] = target: Prostaglandin D2 receptor (Homo sapiens) (UniProt Q13258); test: Displacement of [3H]PGD2 from full-length recombinant human DP1 receptor expressed in Chem-1 cell membranes measured after 120 mins by scintillation counting method
[9] = target: Prostaglandin E2 receptor EP4 subtype (Homo sapiens, UniProt P35408); test: Displacement of [3H]prostaglandin E2 from full-length recombinant human EP4 receptor expressed in HEK293 cell membranes measured after 120 mins by scintillation counting method
Chain of Prostaglandin E2 receptor EP4 subtype (P35408 whole entry): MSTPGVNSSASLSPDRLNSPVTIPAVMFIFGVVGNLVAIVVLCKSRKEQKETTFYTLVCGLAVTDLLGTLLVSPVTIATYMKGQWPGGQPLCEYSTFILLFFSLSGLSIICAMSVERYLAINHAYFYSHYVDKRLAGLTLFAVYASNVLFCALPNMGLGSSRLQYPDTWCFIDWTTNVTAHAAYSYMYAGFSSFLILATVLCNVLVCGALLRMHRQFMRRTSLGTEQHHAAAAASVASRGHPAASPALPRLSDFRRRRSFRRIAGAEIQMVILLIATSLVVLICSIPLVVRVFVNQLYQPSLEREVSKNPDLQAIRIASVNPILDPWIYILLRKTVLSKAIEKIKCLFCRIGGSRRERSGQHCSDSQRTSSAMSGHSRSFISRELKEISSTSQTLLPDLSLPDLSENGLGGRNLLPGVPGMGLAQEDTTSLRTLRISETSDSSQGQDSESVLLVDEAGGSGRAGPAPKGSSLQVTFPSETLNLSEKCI

[10] = target: Prostaglandin E2 receptor EP3 subtype (Homo sapiens) (UniProt P43115); test: Displacement of [3H]prostaglandin E2 from full-length recombinant human EP3 receptor expressed in HEK293 cell membranes measured after 120 mins by scintillation counting method
Chain of Prostaglandin E2 receptor EP3 subtype (Homo sapiens) (P43115 whole entry): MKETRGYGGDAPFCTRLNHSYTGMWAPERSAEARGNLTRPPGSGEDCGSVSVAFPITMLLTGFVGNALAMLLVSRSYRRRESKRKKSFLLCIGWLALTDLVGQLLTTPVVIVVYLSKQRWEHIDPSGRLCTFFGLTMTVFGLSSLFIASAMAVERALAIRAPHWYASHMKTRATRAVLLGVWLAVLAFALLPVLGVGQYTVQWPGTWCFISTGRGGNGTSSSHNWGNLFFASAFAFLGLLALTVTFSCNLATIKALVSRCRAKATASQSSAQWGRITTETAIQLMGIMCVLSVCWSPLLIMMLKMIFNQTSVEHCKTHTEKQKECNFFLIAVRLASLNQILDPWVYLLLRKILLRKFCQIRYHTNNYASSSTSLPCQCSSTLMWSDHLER

[11] = target: Prostaglandin E2 receptor EP2 subtype (Homo sapiens, UniProt P43116); test: Displacement of [3H]prostaglandin E2 from full-length recombinant human EP2 receptor expressed in HEK293 cell membranes measured after 120 mins by scintillation counting method
Chain of Prostaglandin E2 receptor EP2 subtype (P43116 whole entry): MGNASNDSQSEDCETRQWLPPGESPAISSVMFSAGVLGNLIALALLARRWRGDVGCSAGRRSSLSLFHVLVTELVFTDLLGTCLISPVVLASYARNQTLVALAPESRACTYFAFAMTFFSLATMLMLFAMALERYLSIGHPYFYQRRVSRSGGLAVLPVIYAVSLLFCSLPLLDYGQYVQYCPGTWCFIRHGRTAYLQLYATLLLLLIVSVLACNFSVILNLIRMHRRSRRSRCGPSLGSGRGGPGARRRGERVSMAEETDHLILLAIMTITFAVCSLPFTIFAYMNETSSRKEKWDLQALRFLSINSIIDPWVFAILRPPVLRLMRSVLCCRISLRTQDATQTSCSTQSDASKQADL

[12] = target: Prostaglandin E2 receptor EP1 subtype (Homo sapiens) (UniProt P34995); test: Displacement of [3H]prostaglandin E2 from full-length recombinant human EP1 receptor expressed in HEK293 cell membranes measured after 60 mins by scintillation counting method
Chain of Prostaglandin E2 receptor EP1 subtype (Homo sapiens) (P34995 whole entry): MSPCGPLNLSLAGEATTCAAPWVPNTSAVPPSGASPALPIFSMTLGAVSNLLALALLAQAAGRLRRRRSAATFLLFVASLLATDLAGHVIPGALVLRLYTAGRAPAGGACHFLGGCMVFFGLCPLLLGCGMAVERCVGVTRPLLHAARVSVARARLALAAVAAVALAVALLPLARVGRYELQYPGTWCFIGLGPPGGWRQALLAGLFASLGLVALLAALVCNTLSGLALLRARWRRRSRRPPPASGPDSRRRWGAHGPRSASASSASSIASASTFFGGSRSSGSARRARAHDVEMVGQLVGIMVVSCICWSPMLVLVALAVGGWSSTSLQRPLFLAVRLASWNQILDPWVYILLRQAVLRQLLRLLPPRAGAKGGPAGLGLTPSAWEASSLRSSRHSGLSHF

[13] = target: T1, Prostaglandin F2-alpha receptor (Homo sapiens, UniProt P43088); test: Displacement of [3H]PGF2alpha from full-length recombinant human FP receptor expressed in HEK293 cell membranes measured after 60 mins by scintillation counting method
T1 sequence (P43088 whole entry): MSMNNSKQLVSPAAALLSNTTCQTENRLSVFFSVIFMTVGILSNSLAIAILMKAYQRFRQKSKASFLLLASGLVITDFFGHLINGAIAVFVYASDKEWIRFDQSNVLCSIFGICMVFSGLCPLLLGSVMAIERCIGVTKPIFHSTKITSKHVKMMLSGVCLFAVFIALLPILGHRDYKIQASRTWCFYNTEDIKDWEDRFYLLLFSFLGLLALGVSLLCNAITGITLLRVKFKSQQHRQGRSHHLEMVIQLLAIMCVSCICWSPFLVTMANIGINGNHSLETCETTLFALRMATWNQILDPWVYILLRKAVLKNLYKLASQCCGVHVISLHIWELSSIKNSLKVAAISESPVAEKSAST

Homo sapiens [14] = species on record: Homo sapiens; test: Selectivity ratio of IC50 for displacement of [3H]PGD2 from full-length recombinant human IP receptor expressed in HEK293 cell membranes to IC50 for displacement of [3H]PGF2alpha from full-length recombinant human FP receptor expressed in HEK293 cell membranes
Homo sapiens [15] = species on record: Homo sapiens; test: Selectivity ratio of IC50 for displacement of [3H]PGD2 from full-length recombinant human DP1 receptor expressed in Chem-1 cell membranes to IC50 for displacement of [3H]PGF2alpha from full-length recombinant human FP receptor expressed in HEK293 cell membranes
Homo sapiens [16] = species on record: Homo sapiens; test: Selectivity ratio of IC50 for displacement of [3H]prostaglandin E2 from full-length recombinant human EP3 receptor expressed in HEK293 cell membranes to IC50 for displacement of [3H]PGF2alpha from full-length recombinant human FP receptor expressed in HEK293 cell membranes
Homo sapiens [17] = species on record: Homo sapiens; test: Selectivity ratio of IC50 for displacement of [3H]prostaglandin E2 from full-length recombinant human EP2 receptor expressed in HEK293 cell membranes to IC50 for displacement of [3H]PGF2alpha from full-length recombinant human FP receptor expressed in HEK293 cell membranes
Homo sapiens [18] = species on record: Homo sapiens; test: Selectivity ratio of IC50 for displacement of [3H]prostaglandin E2 from full-length recombinant human EP1 receptor expressed in HEK293 cell membranes to IC50 for displacement of [3H]PGF2alpha from full-length recombinant human FP receptor expressed in HEK293 cell membranes
[19] = target: T1, Prostaglandin F2-alpha receptor; test: Antagonist activity at human FPR expressed in human Chem-1 cells assessed as inhibition of PGF2alpha-induced calcium flux preincubated for 10 mins followed by PGF2alpha stimulation and measured for 120 secs by fluo-8 AM dye based fluorescence assay; assay type: functional, cell-based
Mus musculus [20] = test: Antifibrotic activity in silica-induced pulmonary fibrosis C57Bl6J mouse model assessed as decrease in lung osteopontin production at 3 to 30 mg/kg, po bid for 9 days measured post-last dose by Bio-Rad analysis; assay type: functional, organism-based; settings: dose mg/kg 3-30, time 9.0 day
Mus musculus [21] = test: Antifibrotic activity in silica-induced pulmonary fibrosis C57Bl6J mouse model assessed as decrease in lung IL1beta production at 3 to 30 mg/kg, po bid for 9 days measured post-last dose by Bio-Rad analysis; assay type: functional, organism-based; settings: dose mg/kg 3-30, time 9.0 day
Mus musculus [22] = test: Antifibrotic activity in silica-induced pulmonary fibrosis C57Bl6J mouse model assessed as decrease in lung MCP1 production at 3 to 30 mg/kg, po bid for 9 days measured post-last dose by Bio-Rad analysis; assay type: functional, organism-based; settings: dose mg/kg 3-30, time 9.0 day
[23] = target: Prostaglandin F2-alpha receptor (Mus musculus) (UniProt P43117); test: Antagonist activity at FPR in mouse NIH3T3 cells co-transfected with mtClytin assessed as inhibition of PGF2alpha-induced calcium flux preincubated for 5 mins followed by PGF2alpha stimulation and measured for 60 secs by calcium dye based fluorescence assay; assay type: functional, cell-based; settings: filed as antagonist, time 6.0 min
Chain of Prostaglandin F2-alpha receptor (Mus musculus) (P43117 whole entry, the tested form may be a part): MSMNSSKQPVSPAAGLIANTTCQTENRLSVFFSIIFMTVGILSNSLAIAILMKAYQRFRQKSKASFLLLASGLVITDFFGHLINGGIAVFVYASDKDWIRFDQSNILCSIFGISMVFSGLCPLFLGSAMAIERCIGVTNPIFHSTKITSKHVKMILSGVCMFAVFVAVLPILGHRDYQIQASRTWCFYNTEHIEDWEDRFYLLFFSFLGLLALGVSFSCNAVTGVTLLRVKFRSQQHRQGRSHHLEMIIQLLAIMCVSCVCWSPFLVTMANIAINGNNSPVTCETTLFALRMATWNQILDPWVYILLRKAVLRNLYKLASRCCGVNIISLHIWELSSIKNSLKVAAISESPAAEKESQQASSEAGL

[24] = Clearance in Wistar rat at 0.3 to 1 mg/kg, iv administered as bolus dose or 15 mins infusion by LC-MS/MS analysis; assay type: ADME, organism-based; settings: in vivo, dose 0.3-1 mg/kg; for clearance: Wistar
[25] = Lipophilicity, log D of compound at pH 7.5 by HPLC analysis; settings: buffer
[26] = Toxicity in Wistar rat up to 200 mg/kg/day, po administered for 14 days; assay type: organism-based; settings: in vivo, 336 h, time 14 day
[27] = Induction of CYP3A4 mRNA expression in human hepatocytes supplemented with fresh medium containing compounds daily for 2 days measured 24 hrs post last dose by qRT-PCR analysis; settings: 72 h
[28] = Maximum oral bioavailability in rat hepatocytes based well stirred liver model at 1 uM measured after 2 to 90 mins by LC-MS/MS analysis; assay type: ADME, Hepatocyte; settings: time 2-90 min, read-out: Fmax
[29] = Protein binding in pooled human plasma assessed as unbound fraction incubated for 6 hrs by LC-MS/MS analysis based equilibrium dialysis method; assay type: ADME, cell-free
[30] = Apparent permeability in human Caco-2 cells measured after 2 hrs by HPLC analysis; assay type: ADME, cell-based

## Cc1c(-c2ccccc2)nc2ccc(Br)cc2c1C(=O)Nc1ccc(C(N)=O)cc1F
[1]
  efflux ratio at 2 h: 18
[2]
  CLhep predicted at 1 µM: 58.3 mL/min/kg
Homo sapiens [3]
  Ratio IC50: 16

## Cc1c(-c2ccccc2)nc2ccc(Br)cc2c1C(=O)NC12CCC(C(=O)O)(CC1)CC2
Cytochrome P450 2D6
  IC50: > 10 µM
Cytochrome P450 2C9
  IC50: > 10 µM
Cytochrome P450 2C8
  IC50: > 10 µM
Cytochrome P450 1A2
  IC50: > 10 µM
[4]
  half-life: 900 min
[5]
  bioavailability: 100%
[6]
  clearance: 0.5 mL/min/kg
Cytochrome P450 3A4
  IC50: > 10 µM
[7]
  bioavailability: 90%

## Cc1c(-c2cccs2)nc2ccc(Br)cc2c1C(=O)NCCc1cccnc1
Prostacyclin receptor
  inhibition: inactive
[8]
  inhibition: inactive
[9]
  inhibition: inactive
[10]
  inhibition: inactive
[11]
  IC50: 4.4 µM
[12]
  inhibition: inactive
[13]
  IC50: 1400 nM
Homo sapiens [14]
  Ratio IC50: > 3.1
Homo sapiens [15]
  Ratio IC50: > 3.1
Homo sapiens [3]
  Ratio IC50: > 3.1
Homo sapiens [16]
  Ratio IC50: > 3.1
Homo sapiens [17]
  Ratio IC50: > 3.1
Homo sapiens [18]
  Ratio IC50: > 3.1
[19]
  IC50: 1800 nM

## Cc1c(N2CCCC2)nc2ccc(Br)cc2c1C(=O)NC[C@H](CCC(=O)O)c1ccccc1Cl
Mus musculus [20]
  Activity: Active
Mus musculus [21]
  Activity: Active
Mus musculus [22]
  Activity: Active
[23]
  fIC50: 5.2 nM

## Cc1c(-c2ccccc2)nc2ccc(Br)cc2c1C(=O)NCC(CCC(=O)O)c1ccccc1Cl (single isomer, unassigned; (+))
[4]
  half-life: 330 min
[5]
  bioavailability: 75%
[24]
  clearance: 30 mL/min/kg
Cytochrome P450 3A4
  IC50: > 20 µM
[25]
  logD: 2.2
[19]
  IC50: 9 nM

## Cc1c(-c2ccccc2)nc2ccc(Br)cc2c1C(=O)NCC(CC(=O)O)c1ccccc1Cl (single isomer, unassigned; (+))
[4]
  half-life: 156 min
[5]
  bioavailability: 90%
[24]; 0.25 h
  CL: 2.6 L/h/kg
Cytochrome P450 3A4
  IC50: > 20 µM
[25]
  logD: 2
[26]
  Activity: Non-Toxic
[27]
  NOAEL: 6 µM

## COc1ccccc1C(C)CNC(=O)c1c(C)c(-c2ccccc2)nc2ccc(Br)cc12 (single isomer, unassigned; (-))
[28]
  Fh at 1 µM: 6%
[2]
  CLhep predicted at 1 µM: 65 mL/min/kg
[24]
  clearance: 63.3 mL/min/kg
[29]
  fraction unbound at 6 h: < 0.01
[13]
  IC50: < 1 nM
[19]
  IC50: 14 nM

## Cc1c(-c2ccccc2)nc2ccc(Br)cc2c1C(=O)NCC(C(=O)O)c1ccccc1Cl (stereo in doubt; 31)
[28]
  Fh at 1 µM: 78%
[2]
  CLhep predicted at 1 µM: 15 mL/min/kg
[24]
  clearance: 55 mL/min/kg

## Cc1c(-c2ccccc2)nc2ccc(Br)cc2c1C(=O)NCC(CCCC(=O)O)c1ccccc1Cl (stereo in doubt; 44)
[30]
  Papp at 2 h: 40.1 ×10⁻⁶ cm/s
[24]
  clearance: 33.3 mL/min/kg
Cytochrome P450 3A4
  IC50: 13 µM
